Laboratory results published in paper PMC11845477, “Exploring the principles behind antibiotics with limited resistance” (Nature Communications, 2025).

Legend:
[1] = system: E. coli ATCC 25922 (SEN) and E. coli NCTC13846 (MDR); test: Adaptive laboratory evolution (ALE), relative MIC of evolved lines; format: cell-based, Escherichia coli; details: for Relative MIC (log10): EC-SEN (Escherichia coli ATCC 25922)
Source text: (§1) Using the same set of bacterial strains, we initiated adaptive laboratory evolution with the aim to maximize the level of antibiotic resistance in the populations achieved during a longer, but fixed time period.
(§2) An established protocol for adaptive laboratory evolution[46],[73] was followed to propagate populations with the highest resistance levels. Starting with an antibiotic concentration that caused approximately 50% growth inhibition, ten parallel populations for each antibiotic-ancestor strain combination were grown for 72 hours at 37 °C with continuous shaking (300 RPM). MHB broth medium was used unless stated otherwise. After each incubation, 20 µl of each culture was transferred to four new wells containing fresh medium with increasing antibiotic concentrations (0.5×, 1×, 1.5×, and 2.5× the previous concentration) in a chessboard layout to monitor potential cross-contamination. Growth was monitored by measuring OD600 using a Biotek Synergy 2 microplate reader, and only populations grown in the highest drug concentration with an OD600 > 0.2 were transferred further.
(§3) A robotic liquid handling system was used to automatically prepare a 11 to 16-step serial dilution in 384-well microtiter plates (Greiner). A final concentration of 5 × 10^5 bacterial cells per mL were inoculated into each well containing 60 µL MHB medium. Bacterial cultures were incubated at 37 °C with continuous shaking (Infors shaker, 900 rpm with 3 mm throw) for 18 hours (2 replicates from each). Cell growth was monitored by measuring the optical density (OD600 values, using Biotek Synergy microplate reader). MIC was defined as the antibiotic concentration of complete growth inhibition (i.e., OD600 < 0.05). Relative MIC was calculated as follows:1 relativeMIC=MICevolved/MICancestor […]
(§4) Supplementary Figure 4. Resistance levels following adaptive laboratory evolution across bacterial strains. The level of resistance was measured as the fold change in relative MIC between evolved and ancestral strains after ~60 days of adaptive laboratory evolution. Data are grouped by bacterial strain (A. baumannii (AB), E. coli (EC), K. pneumoniae (KP), and P. aeruginosa (PA)) and categorized as either multidrug-resistant (MDR) or sensitive (SEN). Each data point represents a laboratory evolved line, and boxplots show the median, first and third quartiles, with whiskers indicating the 5th and 95th percentiles.
(§5) Statistical analysis was performed using two-sided Dunn’s post-hoc test with Benjamini-Hochberg correction for multiple comparisons (****/ ***/ **/ * indicates p < 0.0001/ 0.001/ 0.01/ 0.05). For detailed information on antibiotic and bacterial species, see Supplementary Table 1. For mode of action groups, refer to Table 1. Source data are provided as a Source Data file.
(1 picture or pasted object on this page, not shown here)

[2] = system: A. baumannii ATCC 17978 (SEN) and A. baumannii ATCC BAA-1605 (MDR); test: as above; format: cell-based, Acinetobacter baumannii; details: for Relative MIC (log10): AB-SEN (Acinetobacter baumannii ATCC 17978)
Source text: as §1, §2, §3, §4, §5

[3] = evolved line 2 adapted to the named antibiotic
[4] = evolved line 8 adapted to the named antibiotic

C[C@H]1c2cccc(O)c2C(=O)C2=C(O)[C@]3(O)C(=O)C(C(N)=O)=C(O)[C@@H](N(C)C)[C@@H]3[C@@H](O)[C@@H]21 [Doxycycline]
Relative MIC ([1]; EC-SEN (ATCC 25922), evolved line 1, MIC of evolved line / MIC of ancestor): 32 | Relative MIC ([1]; EC-SEN (ATCC 25922), evolved line 2, MIC of evolved line / MIC of ancestor): 16 | Relative MIC ([1]; EC-SEN (ATCC 25922), evolved line 3, MIC of evolved line / MIC of ancestor): 32 | Relative MIC ([1]; EC-SEN (ATCC 25922), evolved line 4, MIC of evolved line / MIC of ancestor): 128 | Relative MIC ([1]; EC-SEN (ATCC 25922), evolved line 6, MIC of evolved line / MIC of ancestor): 8 | Relative MIC ([1]; EC-SEN (ATCC 25922), evolved line 7, MIC of evolved line / MIC of ancestor): 16 | Relative MIC ([1]; EC-SEN (ATCC 25922), evolved line 8, MIC of evolved line / MIC of ancestor): 32 | Relative MIC ([1]; EC-SEN (ATCC 25922), evolved line 9, MIC of evolved line / MIC of ancestor): 16 | Relative MIC ([1]; EC-SEN (ATCC 25922), evolved line 10, MIC of evolved line / MIC of ancestor): 16 | Relative MIC (log10) ([1]; evolved line 1 adapted to the named antibiotic): 1.505 | Relative MIC (log10) [1, 3]: 1.204 | Relative MIC (log10) ([1]; evolved line 3 adapted to the named antibiotic): 1.505 | Relative MIC (log10) [1, 4]: 1.505 | Relative MIC (log10) ([1]; evolved line 9 adapted to the named antibiotic): 1.204 | Relative MIC ([1]; Escherichia coli ATCC 25922 (EC-SEN), evolved line 1): 32 | Relative MIC ([1]; Escherichia coli ATCC 25922 (EC-SEN), evolved line 2): 16 | Relative MIC ([1]; Escherichia coli ATCC 25922 (EC-SEN), evolved line 3): 32 | Relative MIC ([1]; Escherichia coli ATCC 25922 (EC-SEN), evolved line 4): 128 | Relative MIC ([1]; Escherichia coli ATCC 25922 (EC-SEN), evolved line 6): 8 | Relative MIC ([1]; Escherichia coli ATCC 25922 (EC-SEN), evolved line 7): 16 | Relative MIC ([1]; Escherichia coli ATCC 25922 (EC-SEN), evolved line 8): 32 | Relative MIC ([1]; Escherichia coli ATCC 25922 (EC-SEN), evolved line 9): 16 | Relative MIC ([1]; Escherichia coli ATCC 25922 (EC-SEN), evolved line 10): 16 | Relative MIC ([2]; AB-SEN (ATCC 17978), evolved line 1, MIC of evolved line / MIC of ancestor): 32 | Relative MIC ([2]; AB-SEN (ATCC 17978), evolved line 2, MIC of evolved line / MIC of ancestor): 64 | Relative MIC ([2]; AB-SEN (ATCC 17978), evolved line 3, MIC of evolved line / MIC of ancestor): 16 | Relative MIC ([2]; AB-SEN (ATCC 17978), evolved line 4, MIC of evolved line / MIC of ancestor): 32 | Relative MIC ([2]; AB-SEN (ATCC 17978), evolved line 5, MIC of evolved line / MIC of ancestor): 32 | Relative MIC ([2]; AB-SEN (ATCC 17978), evolved line 6, MIC of evolved line / MIC of ancestor): 16 | Relative MIC ([2]; AB-SEN (ATCC 17978), evolved line 7, MIC of evolved line / MIC of ancestor): 32 | Relative MIC ([2]; AB-SEN (ATCC 17978), evolved line 8, MIC of evolved line / MIC of ancestor): 32 | Relative MIC ([2]; AB-SEN (ATCC 17978), evolved line 9, MIC of evolved line / MIC of ancestor): 16 | Relative MIC ([2]; AB-SEN (ATCC 17978), evolved line 10, MIC of evolved line / MIC of ancestor): 16 | Relative MIC (log10) [2, 3]: 1.806 | Relative MIC (log10) ([2]; evolved line 4 adapted to the named antibiotic): 1.505 | Relative MIC (log10) ([2]; evolved line 5 adapted to the named antibiotic): 1.505 | Relative MIC (log10) ([2]; evolved line 7 adapted to the named antibiotic): 1.505 | Relative MIC (log10) [2, 4]: 1.505 | Relative MIC ([2]; Acinetobacter baumannii ATCC 17978 (AB-SEN), evolved line 1): 32 | Relative MIC ([2]; Acinetobacter baumannii ATCC 17978 (AB-SEN), evolved line 2): 64 | Relative MIC ([2]; Acinetobacter baumannii ATCC 17978 (AB-SEN), evolved line 3): 16 | Relative MIC ([2]; Acinetobacter baumannii ATCC 17978 (AB-SEN), evolved line 4): 32 | Relative MIC ([2]; Acinetobacter baumannii ATCC 17978 (AB-SEN), evolved line 5): 32 | Relative MIC ([2]; Acinetobacter baumannii ATCC 17978 (AB-SEN), evolved line 6): 16 | Relative MIC ([2]; Acinetobacter baumannii ATCC 17978 (AB-SEN), evolved line 7): 32 | Relative MIC ([2]; Acinetobacter baumannii ATCC 17978 (AB-SEN), evolved line 8): 32 | Relative MIC ([2]; Acinetobacter baumannii ATCC 17978 (AB-SEN), evolved line 9): 16 | Relative MIC ([2]; Acinetobacter baumannii ATCC 17978 (AB-SEN), evolved line 10): 16
